Patent US20110189213A1, “MYBL2 EPITOPE PEPTIDES AND VACCINES CONTAINING THE SAME” (Oncotherapy Science, Inc., priority 2008, published 2011)
Entries after “also recorded” stand apart in the source; their conditions may differ.

Experiments:
Assay type in all cases: cell-based, human
[1] = system: peptide-pulsed A24LCL cells; test: IFN-gamma ELISPOT assay on CTLs induced with MYBL2 peptides; settings: against peptide-pulsed target cells vs control without peptide, day 21 after 3rd stimulation
Description: (§1) Monocyte-derived dendritic cells (DCs) were used as antigen-presenting cells (APCs) to induce cytotoxic T lymphocyte (CTL) responses against peptides presented on human leukocyte antigen (HLA). DCs were generated in vitro as described elsewhere (Nakahara S et al., Cancer Res 2003 Jul. 15, 63(14): 4112-8). Specifically, peripheral blood mononuclear cells (PBMCs) isolated from a normal volunteer (HLA-A*2402 positive) by Ficoll-Plaque (Pharmacia) solution were separated by adherence to a plastic tissue culture dish (Becton Dickinson) so as to enrich them as the monocyte fraction. The monocyte-enriched population was cultured in the presence of 1000 U/ml of granulocyte-macrophage colony-stimulating factor (GM-CSF) (R&D System) and 1000 U/ml of interleukin (IL)-4 (R&D System) in AIM-V Medium (Invitrogen) containing 2% heat-inactivated autologous serum (AS). After 7 days of culture, the cytokine-induced DCs were pulsed with 20 mcg/ml of each of the synthesized peptides in the presence of 3 mcg/ml of beta2-microglobulin for 3 hr at 37 degrees C. in AIM-V Medium. The generated cells appeared to express DC-associated molecules, such as CD80, CD83, CD86 and HLA class II, on their cell surfaces (data not shown). These peptide-pulsed DCs were then inactivated by Mitomycin C (MMC) (30 mcg/ml for 30 min) and mixed at a 1:20 ratio with autologous CD8+ T cells, obtained by positive selection with CD8 Positive Isolation Kit (Dynal). These cultures were set up in 48-well plates (Corning); each well contained 1.5×10^4 peptide-pulsed DCs, 3×10^5 CD8+ T cells and 10 ng/ml of IL-7 (R&D System) in 0.5 ml of AIM-V/2% AS medium. Three days later, these cultures were supplemented with IL-2 (CHIRON) to a final concentration of 20 IU/ml. On day 7 and 14, the T cells were further stimulated with the autologous peptide-pulsed DCs. The DCs were prepared each time by the same way described above. CTL was tested against peptide-pulsed A24LCL cells after the 3rd round of peptide stimulation on day 21 (Tanaka H et al., Br J Cancer 2001 Jan. 5, 84(1): 94-9; Umano Y et al., Br J Cancer 2001 Apr. 20, 84(8): 1052-7; Uchida N et al., Clin Cancer Res 2004 Dec. 15, 10(24): 8577-86; Suda T et al., Cancer Sci 2006 May, 97(5): 411-9; Watanabe T et al., Cancer Sci 2005 August, 96(8): 498-506).
(§2) To examine specific CTL activity, interferon (IFN)-gamma enzyme-linked immunospot (ELISPOT) assay and IFN-gamma enzyme-linked immunosorbent assay (ELISA) were performed. Specifically, peptide-pulsed A24LCL (1×10^4/well) was prepared as stimulator cells. Cultured cells in 48 wells were used as responder cells. IFN-gamma ELISPOT assay and IFN-gamma ELISA assay were performed under manufacture procedure.

[2] = system: peptide-pulsed A24LCL cells; test: IFN-gamma ELISA assay on established CTL lines; settings: target cells pulsed with corresponding peptide vs target cells without peptide pulse
Description: CTLs were expanded in culture using the method similar to the one described by Riddell et al. (Walter E A et al., N Engl J Med 1995 Oct. 19, 333(16): 1038-44; Riddell S R et al., Nat Med 1996 February, 2(2): 216-23). A total of 5×10^4 CTLs were suspended in 25 ml of AIM-V/5% AS medium with 2 kinds of human B-lymphoblastoid cell lines, inactivated by MMC, in the presence of 40 ng/ml of anti-CD3 monoclonal antibody (Pharmingen). One day after initiating the cultures, 120 IU/ml of IL-2 were added to the cultures. The cultures were fed with fresh AIM-V/5% AS medium containing 30 IU/ml of IL-2 on days 5, 8 and 11 (Tanaka H et al., Br J Cancer 2001 Jan. 5, 84(1): 94-9; Umano Y et al., Br J Cancer 2001 Apr. 20, 84(8): 1052-7; Uchida N et al., Clin Cancer Res 2004 Dec. 15, 10(24): 8577-86; Suda T et al., Cancer Sci 2006 May, 97(5): 411-9; Watanabe T et al., Cancer Sci 2005 August, 96(8): 498-506).
as §2

[3] = system: CD8+ T cells stimulated with peptide-pulsed DCs (HLA-A*2402 positive); test: In vitro CTL induction and establishment of CTL lines; settings: cells of positive wells expanded
Description: as §1, with “CTL was tested against peptide-pulsed A24LCL cells after the 3rd round of peptide stimulation on day 21 (Tanaka H et al., Br J Cancer 2001 Jan. 5, 84(1): 94-9; Umano Y et al., Br J Cancer 2001 Apr. 20, 84(8): 1052-7; Uchida N et al., Clin Cancer Res 2004 Dec. 15, 10(24): 8577-86; Suda T et al., Cancer Sci 2006 May, 97(5): 411-9; Watanabe T et al., Cancer Sci 2005 August, 96(8): 498-506).” left out

Row | Sequence | IFN-gamma production of peptide-stimulated CTLs (ELISPOT) ([1]; listed as MYBL2-A24-9-370) | IFN-gamma production of established CTL lines (ELISA) [2] | IFN-gamma production of established CTL lines (ELISA) ([2]; listed as MYBL2-A24-9-370) | Establishment of CTL lines [3] | IFN-gamma production of peptide-stimulated CTLs (ELISPOT) ([1]; listed as MYBL2-A24-10-197) | IFN-gamma production of established CTL lines (ELISA) ([2]; listed as MYBL2-A24-10-197) | IFN-gamma production of peptide-stimulated CTLs (ELISPOT) ([1]; listed as MYBL2-A24-9-100) | IFN-gamma production of established CTL lines (ELISA) ([2]; listed as MYBL2-A24-9-100) | IFN-gamma production of peptide-stimulated CTLs (ELISPOT) ([1]; listed as MYBL2-A24-10-48) | IFN-gamma production of established CTL lines (ELISA) ([2]; listed as MYBL2-A24-10-48)
1 | EYRLDGHTI [SEQ ID NO: 2, 9-mer peptide derived from MYBL2, start position 370] | potent IFN-gamma production as compared to the control wells; also recorded: potent IFN-gamma production as compared with the control | potent IFN-gamma production against the target cells pulsed with corresponding peptide | potent IFN-gamma production as compared with the control | expanded and established CTL lines |  |  |  |  |  | 
2 | KPPVYLLLEL [SEQ ID NO: 13, 10-mer peptide derived from MYBL2, start position 197] |  | potent IFN-gamma production against the target cells pulsed with corresponding peptide |  | expanded and established CTL lines | potent IFN-gamma production as compared to the control wells; also recorded: potent IFN-gamma production as compared with the control | potent IFN-gamma production as compared with the control |  |  |  | 
3 | KYGTKQWTL [SEQ ID NO: 1, 9-mer peptide derived from MYBL2, start position 100] |  | potent IFN-gamma production against the target cells pulsed with corresponding peptide |  | expanded and established CTL lines |  |  | potent IFN-gamma production as compared to the control wells; also recorded: potent IFN-gamma production as compared with the control | potent IFN-gamma production as compared with the control |  | 
4 | QFGQQDWKFL [SEQ ID NO: 12, 10-mer peptide derived from MYBL2, start position 48] |  |  |  |  |  |  |  |  | typical negative data of CTL response; also recorded: no specific IFN-gamma production was detected | typical negative data of CTL response; also recorded: no specific IFN-gamma production against peptide-pulsed target cells was observed
